For experiment [1], the system named is IR nGRE (pGL3(VDRE) IR1 nGRE luciferase reporter). The experiment can be described thus: Luciferase reporter assay in A549 cells, pGL3(VDRE) IR nGRE plasmids. Format: cell-based, human. As to the method: Luciferase reporter assay. A549 cells seeded on 24-well tissue culture plates overnight at 70% confluency were transfected with 100 ng pCMV β galactosidase, 200 ng pGL3 reporter plasmids and wherever indicated, with 600 ng pSG5 hVDR plasmid (Green et al., 1988) into each well and maintained in medium containing charcoal treated FCS. 24 hours post-transfection, medium was changed and different compounds were added to it for 6 hours. […] Luciferase assay was carried out as instructed (Promega). Normalized values are reported as the mean±SEM; each value originates from at least three individual transfections with assays performed in duplicate.
To investigate whether additional DNA elements could be required to generate a repressing activity, the TSLP IR1 nGRE was inserted upstream of an enhancerless SV40 early promoter located 5′ to the luciferase coding sequence of pGL3 vector, A VDRE separated from the IR1 nGRE by a 314 bp-long DNA segment devoid of any known transregulator binding site (not shown) was inserted to generate a luciferase-expressing reporter plasmid (pGL3(VDRE) IR1 nGRE, FIG. 4), which was transfected into A549 cells, followed by addition of VitD3 and/or FA.
To investigate whether the 1 bp spacer between the inverted repeated motifs of TSLP IR1 nGRE was critical for its repressing function, pGL3-based luciferase plasmids containing the VDRE and TSLP nGRE motifs spaced by 0 to 5 bases (IR0 to IR5 nGREs) were transfected into A549 cells.

Experiment [2] concerns (+)GRE (PGL3(VDRE) (+)GRE luciferase reporter). The experiment is described as follows: Luciferase reporter assay in A549 cells, PGL3(VDRE) (+)GRE vector. It is filed as cell-based, human. The note with it: FA. As to the method: Luciferase reporter assay. A549 cells seeded on 24-well tissue culture plates overnight at 70% confluency were transfected with 100 ng pCMV β galactosidase, 200 ng pGL3 reporter plasmids and wherever indicated, with 600 ng pSG5 hVDR plasmid (Green et al., 1988) into each well and maintained in medium containing charcoal treated FCS. 24 hours post-transfection, medium was changed and different compounds were added to it for 6 hours. Final concentrations of the compounds are: FA, 500 nM; Dex or RU24858, 300 nM or 500 nM (wherever 300 nM Dex or RU was used, it is indicated in the figure, in all other cases, 500 nM concentration was used); active vitamin D3, 1 μM; IL-1β, 5 ng/ml; BAY 11-7082, 5 μM, JNK inhibitor II, 25 μM. Luciferase assay was carried out as instructed (Promega). Normalized values are reported as the mean±SEM; each value originates from at least three individual transfections with assays performed in duplicate. […]
Background: Reporter assays use an easily measured gene product as a stand-in for the process of interest.

The test system of a further experiment is TSLP. The experiment is described as follows: TSLP transcript levels in mouse ear epidermis after topical treatment (Q-RT-PCR). As to conditions: WT mice. It is filed as in vivo. The source says: Mice. […] Real time PCR. Total RNA was reverse transcribed using hexamers, followed by Q-PCR, as reported (Li et al., 2005). The GC agonist fluocinolone acetonide (FA) was applied to ears of mice concomitantly treated with the “low-calcemic” Vitamin D3 (VitD3) analog MC903 (Calcipotriol; hereafter called MC) to trigger TSLP expression (Li et al., 2006). […] As expected, the expression of the GC-inducible GPX3 (glutathione peroxidase 3) gene which harbours a (+)GRE (Tuckermann et al., 1999) was enhanced by FA (FIG. 10) and inhibited by RU co-treatment, while FA or RU had no effect on MC-dependent expression of the CYP24A1 gene (a VitD3 target) (FIG. 10). […] Although the basal TSLP level was similar in vehicle-treated WT and GR^ep−/− mice, FA blocked MC-induced TSLP expression in WT, but not in GR^ep−/− mice (not shown).

We go through 1 compound from US20140093884A1, “Process for Identifying Novel Anti-Inflammatory Molecules with Reduced Direct Transrepression of Genes Induced by Glucocorticoids” (UNIVERSITE DE STRASBOURG, priority 2011, published 2014).

In the case of `CC1(C)O[C@@H]2C[C@H]3[C@@H]4C[C@H](F)C5=CC(=O)C=C[C@]5(C)[C@@]4(F)[C@@H](O)C[C@]3(C)[C@]2(C(=O)CO)O1` [FA, fluocinolone acetonide], the “reporter genes containing the IR1 nGRE DBS of various genes” value in experiment [1] (6 hours, FIG. 13) was “induces repression”. Also, the “repressing activity with mutant IR1 nGRE to which recombinant GR does not bind” value in experiment [1] (FA) was “no FA-inducible repressing activity”. In experiment [1] (pGL3(VDRE) IR1 nGRE, FA addition, FIG. 11), the “basal and VDRE-mediated VitD3-induced luciferase expression in presence of IR1 nGRE” value is reported as “decreased expression”. Further, in experiment [1] (upon FA addition), the “change in basal and VitD3-induced luciferase activity for IR3, IR4 and IR5 nGREs” value is “no significant change”; the “decrease in basal and VitD3-induced luciferase activity for IR1 and IR2 compared with IR0 nGRE” value is given as “stronger”. Also, the “luciferase expression when IR1 nGRE replaced by a (+)GRE” value in experiment [2] is on record as “increase”. Further, the “MC-induced TSLP expression, effect of FA” value in the experiment on TSLP was “blocked”. The “inhibition of basal TSLP RNA level” value in the experiment on TSLP (ears, topical FA) is approximately 50%. In addition, the “MC-induced increase of TSLP RNA, effect of FA” value in the experiment on TSLP (ears, topical, MC903 co-treatment) was “fully blocked”.
